According to patent US10517889B2, “Modulators of SMAD7 expression” (Ionis Pharmaceuticals, Inc., priority 2017, dated 2019):
Strand notation (5' to 3'): a small letter for the sugar, then the base; units joined by * are phosphorothioate-linked, units joined directly phosphodiester-linked; [ ] holds rarer units or linkages, { } end groups; capitals alone tell only the bases. k = constrained ethyl (cEt); [5mC] = 5-methylcytosine; d = 2'-deoxy (DNA)

System: human SMAD7 mRNA
Test: Antisense inhibition of human SMAD7 mRNA expression in Hep3B cells by 3-10-3 cEt gapmers, 10,000 nM, electroporation (Example 2)
Format: cell-based
Conditions: Hep3B cells, 10,000 nM antisense oligonucleotide, electroporation, approximately 24 hours, RT-PCR primer probe set RTS5062, relative to untreated control cells
In short: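 Hep3B cells (20,000/well) were electroporated with 10,000 nM 3-10-3 cEt gapmer (16-mer, phosphorothioate, 5-methylcytosines) and harvested after about 24 h. SMAD7 mRNA quantified by RT-qPCR with primer probe set RTS5062, normalized to total RNA by RiboGreen; percent inhibition relative to untreated cells.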

| Substance | % Inhibition [%] |
| --- | --- |
| 800091 (antisense kT*kG*kA*d[5mC]*dA*d[5mC]*dA*dG*d[5mC]*d[5mC]*dA*dG*dA*kG*k[5mC]*kT) [compound 800091] | 0 |

Same assay, conditions: Hep3B cells, electroporation with 10,000 nM antisense oligonucleotide, approximately 24 hours, RTS5062, percent inhibition of SMAD7 mRNA relative to untreated control cells

| Substance | % Inhibition [%] |
| --- | --- |
| 799824 (antisense kG*kA*kA*dA*dT*dG*dG*d[5mC]*dT*d[5mC]*d[5mC]*dT*dG*k[5mC]*kA*kA) [compound 799824] | 9 |
| 799547 (kT*k[5mC]*k[5mC]*dT*dA*d[5mC]*dT*dG*dT*dT*dG*dG*d[5mC]*kA*kG*kT; antisense) [compound 799547] | 50 |
| 799769 (k[5mC]*k[5mC]*kA*d[5mC]*d[5mC]*dA*dA*d[5mC]*d[5mC]*dT*d[5mC]*dT*dG*kT*kG*kG; antisense) [compound 799769] | 0 |
| 799748 (antisense kG*k[5mC]*kT*dG*dA*dA*dA*dA*dA*dG*dT*d[5mC]*dA*kT*kG*kA) [compound 799748] | 51 |
| 799782 (k[5mC]*kA*kT*dA*dA*dT*dA*dG*dG*dT*dG*dT*d[5mC]*kA*kA*kT; antisense) [compound 799782] | 4 |
| 799828 (antisense kT*kG*k[5mC]*dG*dA*dG*d[5mC]*d[5mC]*dA*dA*dG*dA*dG*kA*k[5mC]*kA) [compound 799828] | 54 |
| 799276 (antisense kG*kG*k[5mC]*dA*dG*d[5mC]*d[5mC]*dA*dG*dT*dT*dA*dA*kT*k[5mC]*kA) [compound 799276] | 29 |
| 799584 (kT*kA*kT*d[5mC]*dA*dA*dG*dA*dA*dG*dA*d[5mC]*dA*kA*kA*k[5mC]; antisense) [compound 799584] | 39 |

Same assay, conditions: Hep3B cells, electroporation with 10,000 nM antisense oligonucleotide, approximately 24 hours, SMAD7 mRNA by RT-PCR (RTS5062), relative to untreated control cells

| Substance | % Inhibition [%] |
| --- | --- |
| 830035 (antisense kA*kT*kT*dG*dG*d[5mC]*dT*dG*dA*dT*d[5mC]*dT*dG*kG*kA*kG) [compound 830035] | 48 |
| 799373 (antisense kA*kA*k[5mC]*d[5mC]*dG*dT*d[5mC]*dT*dT*d[5mC]*d[5mC]*d[5mC]*dA*kT*k[5mC]*kT) [compound 799373] | 56 |
| 772563 (antisense kG*kG*k[5mC]*d[5mC]*dA*d[5mC]*d[5mC]*dT*dG*dA*dA*d[5mC]*dA*k[5mC]*kT*kT) [compound 772563] | 0 |
| 798719 (antisense kA*kG*k[5mC]*dA*dT*d[5mC]*d[5mC]*dA*dG*d[5mC]*d[5mC]*d[5mC]*dT*kG*k[5mC]*k[5mC]) [compound 798719] | 34 |
| 830132 (antisense kT*kA*k[5mC]*d[5mC]*d[5mC]*dG*d[5mC]*d[5mC]*d[5mC]*dA*d[5mC]*dT*d[5mC]*k[5mC]*k[5mC]*k[5mC]) [compound 830132] | 8 |
| 830048 (kT*kT*kT*d[5mC]*d[5mC]*dG*dA*dT*dT*dG*dG*d[5mC]*dA*kG*kG*kT; antisense) [compound 830048] | 57 |
| 799986 (kA*kA*kA*d[5mC]*dA*dT*d[5mC]*dA*d[5mC]*d[5mC]*dA*d[5mC]*dG*k[5mC]*k[5mC]*kT; antisense) [compound 799986] | 44 |
| 799260 (antisense kT*kT*kG*d[5mC]*d[5mC]*d[5mC]*d[5mC]*dA*dA*dA*dA*d[5mC]*dT*k[5mC]*k[5mC]*kA) [compound 799260] | 27 |
| 790532 (kG*k[5mC]*kA*d[5mC]*dG*dG*dG*d[5mC]*dA*dG*d[5mC]*dT*dG*k[5mC]*kT*kG; antisense) [compound 790532] | 0 |
| 830173 (antisense kA*kG*kA*dG*dG*dT*dG*dT*dT*dT*d[5mC]*d[5mC]*dA*kA*kG*kG) [compound 830173] | 48 |
| 798888 (kA*kA*kA*dG*d[5mC]*dT*dG*dA*dT*d[5mC]*dT*dG*d[5mC]*kA*k[5mC]*kG; antisense) [compound 798888] | 40 |
| 830090 (kA*kT*kA*d[5mC]*dA*d[5mC]*dA*dA*dG*dA*d[5mC]*d[5mC]*d[5mC]*kT*kG*kT; antisense) [compound 830090] | 10 |
| 798720 (antisense kG*kG*k[5mC]*dA*dG*d[5mC]*dA*dT*d[5mC]*d[5mC]*dA*dG*d[5mC]*k[5mC]*k[5mC]*kT) [compound 798720] | 25 |
| 830150 (antisense k[5mC]*kA*kG*dT*dG*dG*dT*dG*dA*d[5mC]*d[5mC]*dT*d[5mC]*k[5mC]*k[5mC]*kT) [compound 830150] | 51 |

Same assay, conditions: Hep3B cells, electroporation with 10,000 nM antisense oligonucleotide, approximately 24 hours, primer probe set RTS5062, relative to untreated control cells

| Substance | % Inhibition [%] | % inhibition of SMAD7 mRNA expression [%] |
| --- | --- | --- |
| 799224 (k[5mC]*k[5mC]*kA*dA*dT*d[5mC]*dT*dT*dG*dT*dG*dT*dT*kT*kA*kT; antisense) [compound 799224] | 3 | – |
| 790461 (k[5mC]*k[5mC]*kG*dG*dG*d[5mC]*dA*dG*dG*dA*dG*d[5mC]*dG*kG*k[5mC]*kG; antisense) [compound 790461] | – | 42 |
| 799069 (antisense kA*kT*kA*dA*dG*dA*d[5mC]*dA*dA*dG*dG*dA*dT*kG*kA*kA) [compound 799069] | – | 18 |
| 790543 (kT*kG*kA*dA*dA*dA*dG*d[5mC]*dA*dA*dG*d[5mC]*dA*k[5mC]*kT*k[5mC]; antisense) [compound 790543] | 23 | – |
| 799153 (antisense kG*kT*kT*dA*dG*dG*dT*dG*dT*d[5mC]*dA*dG*d[5mC]*k[5mC]*kT*kA) [compound 799153] | 68 | – |
| 799463 (antisense kT*kG*kG*dT*dA*dA*dG*d[5mC]*dA*d[5mC]*dT*dA*dG*kG*kT*kT) [compound 799463] | – | 33 |
| 798951 (antisense kT*k[5mC]*kT*d[5mC]*dA*dA*dA*dG*dA*dG*d[5mC]*dG*dA*kA*kA*k[5mC]) [compound 798951] | – | 37 |
| 790617 (k[5mC]*kT*kA*d[5mC]*dA*dA*dT*dG*d[5mC]*dT*dA*dA*dA*kT*kT*kT; antisense) [compound 790617] | 0 | – |
| 799347 (kA*kA*kG*dG*dA*dG*dT*dT*dT*d[5mC]*dA*dG*dG*kG*kT*k[5mC]; antisense) [compound 799347] | – | 59 |
| 799038 (kG*kG*kA*d[5mC]*d[5mC]*d[5mC]*d[5mC]*dA*dG*d[5mC]*d[5mC]*dG*d[5mC]*k[5mC]*kA*kG; antisense) [compound 799038] | 19 | – |
| 799046 (antisense kG*kG*k[5mC]*dT*dT*dT*d[5mC]*d[5mC]*d[5mC]*dA*dG*dG*d[5mC]*kT*kG*kG) [compound 799046] | – | 0 |
| 799053 (antisense kA*kG*k[5mC]*d[5mC]*dT*dG*dT*dG*dG*dA*d[5mC]*dA*dG*kG*k[5mC]*k[5mC]) [compound 799053] | 0 | – |
| 799051 (antisense kT*kG*kG*dA*d[5mC]*dA*dG*dG*d[5mC]*d[5mC]*d[5mC]*dG*dT*kG*kT*k[5mC]) [compound 799051] | – | 32 |

Same assay, conditions: Hep3B cells, electroporation, 10,000 nM antisense oligonucleotide, approximately 24 hours, RTS5062, relative to untreated control cells

| Substance | % inhibition of SMAD7 mRNA expression [%] |
| --- | --- |
| 799284 (antisense k[5mC]*kG*kT*dA*dA*dG*dA*d[5mC]*dA*dG*dA*d[5mC]*d[5mC]*kA*k[5mC]*kA) [compound 799284] | 51 |
| 799800 (kT*kT*kA*d[5mC]*dA*dA*dA*dG*dG*dG*dA*dA*dA*kG*kT*k[5mC]; antisense) [compound 799800] | 28 |

Same assay, conditions: SMAD7 mRNA, Hep3B cells, 10,000 nM antisense oligonucleotide, electroporation, approximately 24 hours, primer probe set RTS5062, relative to untreated control cells

| Substance | % Inhibition [%] |
| --- | --- |
| 772733 (kG*kG*kT*dG*dA*dT*dT*dG*d[5mC]*d[5mC]*dT*dT*dG*kA*kT*kA; antisense) [compound 772733] | 39 |
| 772567 (antisense kG*kA*k[5mC]*dT*dT*d[5mC]*d[5mC]*dG*dA*dG*dG*dA*dA*kT*kG*k[5mC]) [compound 772567] | 58 |
| 790529 (kA*kG*k[5mC]*dT*dG*dA*dT*d[5mC]*dT*dG*d[5mC]*dA*d[5mC]*kG*kG*kT; antisense) [compound 790529] | 65 |
| 790612 (kT*kA*kA*dA*d[5mC]*d[5mC]*dT*dT*dT*dG*dT*dA*dG*kT*kT*kA; antisense) [compound 790612] | 64 |
| 829721 (antisense kT*kG*k[5mC]*dG*d[5mC]*d[5mC]*dA*dG*dT*d[5mC]*dT*d[5mC]*d[5mC]*k[5mC]*kG*kG) [compound 829721] | 33 |
| 829735 (antisense k[5mC]*k[5mC]*kT*d[5mC]*d[5mC]*dG*d[5mC]*dA*d[5mC]*dA*d[5mC]*d[5mC]*dA*kT*kG*kA) [compound 829735] | 61 |
| 829723 (antisense kG*k[5mC]*kA*dT*dG*d[5mC]*dG*d[5mC]*d[5mC]*dA*dG*dT*d[5mC]*kT*k[5mC]*k[5mC]) [compound 829723] | 54 |
| 829720 (antisense kG*k[5mC]*kG*d[5mC]*d[5mC]*dA*dG*dT*d[5mC]*dT*d[5mC]*d[5mC]*d[5mC]*kG*kG*kA) [compound 829720] | 14 |

Same assay, conditions: SMAD7 mRNA, Hep3B cells, electroporation with 10,000 nM antisense oligonucleotide, approximately 24 hours, primer probe set RTS5062, relative to untreated control cells

| Substance | % Inhibition [%] |
| --- | --- |
| 829913 (antisense k[5mC]*k[5mC]*kT*dT*dG*dG*dG*dT*dT*dA*dT*dG*dA*k[5mC]*kG*kG) [compound 829913] | 40 |
| 829894 (antisense kG*k[5mC]*kT*dG*dA*dT*d[5mC]*dT*dG*d[5mC]*dA*d[5mC]*dG*kG*kT*kA) [compound 829894] | 41 |
| 829801 (kA*kG*kT*d[5mC]*dG*dG*d[5mC]*dT*dA*dA*dG*dG*dT*kG*kA*kT; antisense) [compound 829801] | 8 |
| 829985 (kG*kA*kG*dG*d[5mC]*dG*dG*dT*dG*dA*dT*dT*dG*k[5mC]*k[5mC]*kT; antisense) [compound 829985] | 16 |
